The experiment concerns Kuramochi cells. The experiment is described as follows: BrdU Cell Proliferation Assay. Particulars: read-out: BrdU - KURAMOCHI.1: IC50. The format is cell-based. On the procedure:
A BrdU assay was used as a measure of proliferation based on the DNA replication process of proliferating cells. BrdU, a pyrimidine analog, is added to the cell culture and incorporated into the DNA of proliferating cells. The presence of the BrdU analog was then measured through a colorimetric ELISA. After fixation and permeabilization of cells, peroxidase-conjugated antibody recognizing BrdU is added and allowed to incubate, followed by thorough washing to remove unbound antibody. In order to quantify the amount of bound antibody, peroxidase substrate is added and produces a color that can be measured at 450 nm.
On day −1, Kuramochi cells (Sekisui XenoTech JCRB0098) were seeded at 2,000 cells/well in columns 2-12 of a 96 well plate (Corning, CLS3596) in 150 μL media and allowed to adhere overnight at 37 degree with 5% CO2.
On day 0, the source plate was prepared by adding 10 mM compounds and performing 3-fold serial dilutions for a 10-point dose response of each compound. Using a multichannel pipette, 2 μL of the contents of the source plate were stamped into an intermediate plate with 500 μL of RPMI 1640 Media, GlutaMAX Supplement (Life Technologies, 61870127) in each well of a Nunc 96 DeepWell™ plate, non-treated 96 DeepWell plate, 2 mL/well, sterile, natural, 60/cs (Sigma Z717274) and mixed thoroughly. 50 μL from each well of this intermediate plate were added to 4 wells of a 96-well plate with previously seeded Kuramochi cells.
On day 4, the plates were developed using the BrdU ELISA Cell Proliferation Assay according to manufacturer's instructions (Roche, 11647229001). Briefly, BrdU was diluted 1:100 in Gibco®, OptiMEM® and 20 μL/well was added, shaken for 10 minutes at 350 rpm, and then returned to the incubator for 1 hour. Following incubation, the medium was discarded, and the cells were fixed by adding 200 μL of Fix/Denature solution. The anti-BrdU peroxidase antibody was diluted 1:1000 in OptiMEM, added at 100 μL/well, and incubated while shaking (350 rpm) for one hour. Three washes with PBS were performed to remove any unbound antibody, followed by the addition of 100 μL of substrate solution to each well. 25 μL/well of 1M sulfuric acid solution was then added to halt the reaction, and plates were read out using an Envision spectrophotometer (Perkin Elmer) set to read 450 nm absorbance. Background absorbance values from empty wells were subtracted from all samples and then normalized to DMSO treated wells.
Take `CNC(=O)[C@@H](NC(=O)[C@H]1CN(C(=O)c2cnn(Cc3ccccc3)c2)CC12CN(C(=O)C1(C(F)(F)F)CC1)C2)[C@@H](C)OCc1ccccc1` [I-108B]: the 50% inhibitory concentration (IC50) is above 10 µM.
As to `CNC(=O)[C@@H](NC(=O)[C@H]1CN(C(=O)c2c[nH]c3ccccc23)CC12CN(C(=O)[C@H]1CC1(C)C)C2)[C@@H](C)OCc1ccccc1` [I-72B], the IC50 is above 10 µM.
The value for `CNC(=O)[C@@H](NC(=O)[C@H]1CN(C(=O)c2ccccn2)CC12CN(C(=O)[C@H]1CC1(C)C)C2)[C@@H](C)OCc1ccccc1` [I-45B] was above 10 µM; that for `CNC(=O)[C@@H](NC(=O)[C@@H]1CN(CC2CCOCC2)CC12CN(C(=O)[C@H]1CC1(C)C)C2)[C@@H](C)OCc1ccccc1` [I-68A] was above 10 µM; that for `CO[C@H]1COCC[C@@H]1NC(=O)[C@H]1CN(C(=O)c2cnn(Cc3ccccc3)c2)CC12CN(C(=O)[C@H]1CC1(C)C)C2` [I-131B] was above 10 µM.
The value for `CNC(=O)[C@@H](NC(=O)[C@@H]1CN(C(=O)c2cnn(Cc3ccccc3)c2)CC12CN(C(=O)C1(CCF)CC1)C2)[C@@H](C)OCc1ccccc1` [I-117A] was above 10 µM; that for `CNC(=O)[C@@H](NC(=O)[C@H]1CN(C(=O)c2cnn(Cc3ccccc3)c2)CC12CN(C(=O)C1(F)CC1)C2)[C@@H](C)OCc1ccccc1` [I-71B] was above 10 µM.
As to `CNC(=O)[C@@H](NC(=O)[C@@H]1CN(C(=O)c2cnn(Cc3ccccc3)c2)CC12CN(C(=O)Cc1ccccc1)C2)[C@@H](C)OCc1ccccc1` [I-25A, (S)-6-(1-benzyl-1H-pyrazole-4-carbonyl)-N-((2S,3R)-3-(benzyloxy)-1-(methylamino)-1-oxobutan-2-yl)-2-(2-phenylacetyl)-2,6-diazaspiro[3.4]octane-8-carboxamide], the IC50 is above 10 µM.
Under `CNC(=O)[C@@H](NC(=O)[C@H]1CN(C(=O)c2sc(COC)nc2C)CC12CN(C(=O)[C@H]1CC1(C)C)C2)[C@@H](C)OCC1CCCCC1` [I-162B] stands above 10 µM; under `CNC(=O)[C@@H](NC(=O)[C@@H]1CN(C(=O)c2cnc[nH]2)CC12CN(C(=O)[C@H]1CC1(C)C)C2)[C@@H](C)OCc1ccccc1` [I-44A], above 10 µM.
The value for `CC1(C)C[C@@H]1C(=O)N1CC2(CN(C(=O)c3cnn(Cc4ccccc4)c3)C[C@@H]2C(=O)N[C@H]2CCc3cc(Cl)ccc32)C1` [I-120B] was above 10 µM.
In the case of `CC1(C)C[C@@H]1C(=O)N1CC2(CN(C(=O)c3cnn(Cc4ccccc4)c3)C[C@H]2C(=O)Nc2cccc(-c3ccccc3)c2)C1` [I-63A], the IC50 was in the range of 5 to 10 µM.
The value for `C[C@@H](OCC1CCCCC1)[C@H](NC(=O)[C@@H]1CN(C(=O)c2cnn(Cc3ccccc3)c2)CC12CN(C(=O)[C@H]1CC1(C)C)C2)C(=O)N1CCC[C@@H]1CN` [I-238] was above 10 µM; that for `CNC(=O)[C@@H](NC(=O)[C@H]1CN(C(=O)c2cnn(CC3CCOCC3)c2)CC12CN(C(=O)[C@H]1CC1(C)C)C2)[C@@H](C)OCc1ccccc1` [I-95B] was above 10 µM; that for `CNC(=O)[C@H](COCc1ccccc1)NC(=O)[C@@H]1CN(C(=O)c2cnn(Cc3ccccc3)c2)CC12CN(C(=O)C(C)(C)C)C2` [I-100A] was above 10 µM.
As to `C[C@@H](OCC1CCCCC1)[C@H](NC(=O)[C@H]1CN(C(=O)c2cnn(Cc3ccccc3)c2)CC12CN(C(=O)[C@H]1CC1(C)C)C2)C(=O)N1CCC(F)(F)CC1` [I-149B], the IC50 was above 10 µM.
Consider `CC1(C)C[C@@H]1C(=O)N1CC2(CN(C(=O)c3cnn(Cc4ccccc4)c3)C[C@H]2C(=O)NCC2CCCCO2)C1` (stereo partly drawn) [I-221], for which the IC50 is above 10 µM.
The value for `CC1(C)C[C@@H]1C(=O)N1CC2(CN(C(=O)c3cnn(Cc4ccccc4)c3)C[C@H]2C(=O)Nc2ccc(Cc3ccccc3)nc2)C1` [I-139, (S)-6-(1-benzyl-1H-pyrazole-4-carbonyl)-N-(6-benzylpyridin-3-yl)-2-((S)-2,2-dimethylcyclopropane-1-carbonyl)-2,6-diazaspiro[3.4]octane-8-carboxamide] was above 10 µM.
Under `CNC(=O)[C@@H](NC(=O)[C@@H]1CN(C(=O)c2cnn(Cc3ccccc3)c2)CC12CN(C(=O)C1(C(F)(F)F)CC1)C2)[C@@H](C)OCc1ccccc1` [I-108A] stands above 10 µM; under `CNC(=O)[C@@H](NC(=O)[C@@H]1CN(Cc2ccncc2)CC12CN(C(=O)[C@H]1CC1(C)C)C2)[C@@H](C)OCc1ccccc1` [I-55A], above 10 µM.
Under `CNC(=O)[C@@H](NC(=O)[C@H]1CN(C(=O)Nc2cnn(Cc3ccccc3)c2)CC12CN(C(=O)[C@H]1CC1(C)C)C2)[C@@H](C)OCc1ccccc1` [I-48B] stands above 10 µM; under `CNC(=O)[C@@H](NC(=O)[C@H]1CN(Cc2cccnc2)CC12CN(C(=O)[C@H]1CC1(C)C)C2)[C@@H](C)OCc1ccccc1` [I-49B], above 10 µM; under `C[C@@H](NC(=O)[C@H]1CN(C(=O)c2cnn(Cc3ccccc3)c2)CC12CN(C(=O)[C@H]1CC1(C)C)C2)c1cccc(F)c1` [I-128B], above 10 µM.
Take `CNC(=O)[C@@H](NC(=O)[C@@H]1CN(C(=O)c2cnn(CC3CCOCC3)c2)CC12CN(C(=O)[C@H]1CC1(C)C)C2)[C@@H](C)OCC1CCCCC1` [I-121A]: the IC50 lay within 5 to 10 µM.
With `CNC(=O)[C@@H](NC(=O)[C@H]1CN(C(=O)c2cncs2)CC12CN(C(=O)CC1CC1)C2)[C@@H](C)OCC1CCCCC1` [I-103B], the IC50 was above 10 µM.
As for `CNC(=O)[C@H](CCCC1CCCCC1)NC(=O)[C@H]1CN(C(=O)c2cnn(Cc3ccccc3)c2)CC12CN(C(=O)[C@H]1CC1(C)C)C2` [I-155B], the IC50 was above 10 µM.
Under `CNC(=O)[C@@H](NC(=O)[C@@H]1CN(C(=O)c2cnn(CC(F)(F)F)c2)CC12CN(C(=O)CC1CC1)C2)[C@@H](C)OCc1ccccc1` [I-43A] stands above 10 µM; under `CNC(=O)[C@@H](NC(=O)[C@@H]1CN(C(=O)c2cnn(Cc3ccccc3)c2)CC12CN(C(=O)CC1(CO)CC1)C2)[C@@H](C)OCc1ccccc1` [I-92A], above 10 µM.
Under `CC1(C)C[C@@H]1C(=O)N1CC2(CN(C(=O)c3cnn(Cc4ccccc4)c3)C[C@H]2C(=O)N2CCN(CC3CCCCC3)CC2)C1` [I-237] stands above 10 µM.
Regarding `CNC(=O)[C@@H](NC(=O)[C@H]1CN(C(=O)c2cnn(Cc3ccccc3)c2)CC12CN(C(=O)CC1CCC1)C2)[C@@H](C)OCc1ccccc1` [I-27B], the IC50 is above 10 µM.
Under `CC1(C)C[C@@H]1C(=O)N1CC2(CN(C(=O)c3cnn(Cc4ccccc4)c3)C[C@@H]2C(=O)NC2CCN(C(=O)c3ccccc3)CC2)C1` [I-61B] stands above 10 µM.
Under `C[C@@H](OCC1CCCCC1)[C@H](NC(=O)[C@@H]1CN(C(=O)c2ccns2)CC12CN(C(=O)[C@H]1CC1(C)C)C2)C(=O)N1CCCCC1` [I-217] stands at most 0.5 µM; under `CNC(=O)[C@@H](NC(=O)[C@@H]1CN(C(=O)c2cnn(Cc3ccccc3)c2)CC12CN(C(=O)[C@H]1CC1(C)C)C2)[C@@H](C)OCC1CCC(C(F)(F)F)CC1` (stereo partly drawn) [I-141A], 0.5 to 5 µM; under `CNC(=O)[C@@H](NC(=O)[C@H]1CN(C(=O)c2scnc2Cl)CC12CN(C(=O)[C@H]1CC1(C)C)C2)[C@@H](C)OCC1CCCCC1` [I-157B], above 10 µM.
Under `C[C@H](NC(=O)[C@H]1CN(C(=O)c2cnn(Cc3ccccc3)c2)CC12CN(C(=O)[C@H]1CC1(C)C)C2)c1cccc(F)c1` [I-127B] stands above 10 µM.
For `CNC(=O)[C@@H](NC(=O)[C@H]1CN(Cc2cncs2)CC12CN(C(=O)[C@H]1CC1(C)C)C2)[C@@H](C)OCc1ccccc1` [I-51B], the IC50 was above 10 µM.
Under `CNC(=O)[C@@H](NC(=O)[C@H]1CN(C(=O)c2cnc(COC)s2)CC12CN(C(=O)[C@H]1CC1(C)C)C2)[C@@H](C)OCC1CCCCC1` [I-145B] stands above 10 µM; under `CNC(=O)[C@@H](NC(=O)[C@H]1CN(C(=O)c2cnn(Cc3ccccc3)c2)CC12CN(C(=O)CC(C)(C)C)C2)[C@@H](C)OCc1ccccc1` [I-62B], above 10 µM; under `CNC(=O)[C@@H](NC(=O)[C@H]1CN(C(=O)c2cnn(Cc3ccccc3)c2)CC12CN(C(=O)C(C)C)C2)[C@@H](C)OCc1ccccc1` [I-54B], above 10 µM.
With `CNC(=O)[C@@H](NC(=O)[C@H]1CN(C(=O)c2cnn(Cc3ccccc3)c2)CC12CN(C(=O)C1(c3ccc(C(C)(C)C)cc3)CC1)C2)[C@@H](C)OCc1ccccc1` [I-80B], the concentration for half-maximal inhibition (IC50) was above 10 µM.
Under `COCC1(NC(=O)[C@H]2CN(C(=O)c3cnn(Cc4ccccc4)c3)CC23CN(C(=O)[C@H]2CC2(C)C)C3)CC1` [I-250] stands above 10 µM.
In the case of `CNC(=O)[C@@H](NC(=O)[C@@H]1CN(C(=O)c2cnn(Cc3ccc(F)cc3)c2)CC12CN(C(=O)[C@H]1CC1(C)C)C2)[C@@H](C)OCC1CCC(F)(F)CC1` [I-170], the IC50 was in the range of 0.5 to 5 µM.

In general, IC50 refers to the midpoint of a concentration-inhibition curve.
